Experimental data published in PMC9848257, “Design and synthesis of novel rigid dibenzo[b,f]azepines through ring closure technique as promising anticancer candidates against leukaemia and acting as selective topoisomerase II inhibitors and DNA intercalators” (Journal of Enzyme Inhibition and Medicinal Chemistry, 2023).

Legend:
leukaemia SR cells = assay: Anti-proliferative effect against SR cell line (MTT assay); assay type: cell-based
Procedure: The anti-proliferative effect of the 5e counterpart against the SR cell line was estimated using the MTT assay protocol.
Depending on the previous results, the cytotoxic activity of the designed candidate 5e was then evaluated against leukaemia SR cells. Doxorubicin was also evaluated as a reference drug.

SR cells [1] = assay: Cell cycle analysis (propidium iodide staining); assay type: cell-based
Procedure: This test was performed using propidium iodide (PI) staining following the detailed procedure in the supporting information (SI 3)[38].
The topoisomerase II inhibitory evaluation, besides the cytotoxicity results of the new compounds, encouraged us to assess the effect of 5e (the most promising candidate) on cell cycle progression in SR cells.
(§1) SI 3. Cell cycle analysis
(§2) Leukemia SR cells were grown in six-well plates (each one contains 2 x 10^5 cells per well) containing 10% fetal bovine serum and incubated for 24 h at 37 °C and 5% CO2. The medium was replaced with (DMSO 1% v/v) containing the 3.1 µM of compound 5e, then incubated for 48 h, collected and washed with cold phosphate buffered saline (PBS). After fixation of the collected cells with ice-cold absolute ethanol (70%), the cells were rinsed with PBS then stained with the DNA fluorochrome PI, kept for 15 min at 37 °C. Then samples were analyzed with a FACS Caliber flow cytometer.
(§3) SI 4. Detection of apoptosis
(§4) Apoptotic activity of compound 5e was evaluated using Annexin V-FITC/PI apoptosis detection kit.
(§5) Leukemia SR cells ([…]) were seeded and incubated with compound 5e for 48 h, trypsinized, collected and washed with phosphate-buffered saline (PBS) several times; SR cells were stained with Annexin V fluorescein isothiocyanate (FITC) and counterstained with propidium iodide (PI) for 15 min at 37 °C in the dark using the apoptosis detection kit (BD Biosciences, San Jose, CA) according to the manufacturer's protocol. Then, Annexin V-FITC and PI binding were analysed by a FACS Caliber flow cytometer.
(§6) SI 5.1. Animals and tumor cell line
(§7) Adult female Swiss albino mice purchased from Theodor Bilharzia Research Institute, Giza, Egypt, with an average body weight of (18-23) g was used. Mice were housed under constant conditions of 12 h light/dark cycle in a […], with free access to standard laboratory mice food and water. […]

SR cells [2] = assay: Apoptosis analysis (Annexin-V staining assay); assay type: cell-based
Procedure: The apoptotic analysis was performed according to the detailed description in the supporting information (SI 4)[39].
Annexin-V staining assay was applied to determine the apoptosis induced by compound 5e. […] In detail, 13.61% and 24.33% for the early phase and late phase of apoptosis, respectively, with respect to the control (0.44%, and 0.16%, respectively). Annexin V/PI staining histograms are supported in the supporting information (Figure SI 2).
as §1, §2, §3, §4, §5, §6, §7

[3] = tested on: Solid Ehrlich carcinoma (SEC); assay: In vivo anti-tumour activity in SEC-bearing mice; set-up: species or system Swiss albino mice; details: 6 mg/Kg B.W., IP
Procedure: (§8) The full methodology of tumour induction, treatments, and blood measurements was carried out according to the described details in the supporting information (SI 5). Moreover, the experimental protocol was approved by the Research Ethics Committee at Suez Canal University (Approval number REC139/2022, Chemistry Department, Faculty of Science, Suez Canal University). […]
as §6
Adult female Swiss albino mice purchased from Theodor Bilharzia Research Institute, Giza, Egypt, with an average body weight of (18-23) g was used. Mice were housed under constant conditions of 12 h light/dark cycle in a […], with free access to standard laboratory mice food and water.
All procedures related to care and maintenance of the animals were performed according to the international guiding principles for animal research and approved by Faculty of Science, Suez Canal University bioethics and animal ethics committee (Approval number REC-01-2022).
Solid Ehrlich carcinoma (SEC) were got from the National Cancer Institute (Cairo University, Egypt). The tumor cell line was proliferated in mice through serial intraperitoneal (I.P.) transplantation of a volume of 0.2 mL physiological saline contains 1 × 10^6 viable cells for 24 h. SEC cells were collected 7 days after I.P. implantation. The harvested cells were diluted with saline to obtain a concentration of 5 × 10^6 viable SEC cells/mL. A volume of 0.2 mL saline contains 1 × 10^6 SEC cells […]
(§9) that were I.P. implanted into each normal mouse. SEC cells (1 × 10^6 tumor cells/mouse) were implanted subcutaneously into the right thigh of the hind limb.
(§10) The experimental animals were randomly divided into four groups. Group 1 served as the normal saline control. Group 2 served as the SEC control (1 × 10^6 cells/mouse). Group 3 served as the compound-treated group (6 mg/kg B.Wt., I.P.). Group 4 received the standard anticancer drug of […]
survival were recorded daily until the 24th day in both treated and control groups. At the end of experiment, the blood of each group was collected under light anesthesia for estimation of hematological and biochemical assays. The anesthetized animals were then sacrificed for evaluation of the antitumor activity and histopathological examination.
SI 5.2. Antitumor potentiality
It includes tumor volume, weight, and tumor inhibition ration (TIR%). Time interval measurements of tumor volume using digital Vernier caliper (Tricle Brand, Shanghai, China). Measure tumor length and width using clipper and then calculate tumor volume using formulations V = (L x W x W)/2, where V is tumor volume, W is tumor width, L is tumor length. While TIR% was calculated according to the following equation: […]. […]

[4] = Liver enzymes (ALT, AST) in SEC-bearing mice; assay type: in vivo, Swiss albino mice; details: 6 mg/Kg B.W., IP
Procedure: as §8, §9, §10
survival were recorded daily until the 24th day in both treated and control groups. At the end of experiment, the blood of each group was collected under light anesthesia for estimation of hematological and biochemical assays. The anesthetized animals were then sacrificed for evaluation of the antitumor activity and histopathological examination. […]
At the end of the experiment, animals from different groups were sacrificed, and blood samples were collected for determination of liver enzymes ALT, AST levels. Activities of aspartate aminotransferase (AST) and alanine aminotransferase (ALT) were evaluated using commercial kits (ELITech clinical systems, France). […]

Structure (SMILES): O=[N+]([O-])c1ccc(-c2nnc(N3c4ccccc4C=Cc4ccccc43)o2)cc1 [Compound 5e, 2-(5 h-Dibenzo[b,f]azepin-5-yl)-5–(4-nitrophenyl)-1,3,4-oxadiazole]
- IC50 (leukaemia SR cells; Homo sapiens, leukaemia SR cells, unit as in head of Table 3, read-out: Cytotoxicity IC50, SR): 13.1 ± 0.62 µM
- SI (selectivity index) (leukaemia SR cells; normal cell line PSC-800-011 versus SR): 3.36
- Cell cycle arrest phase (SR cells [1]): G1 phase
- Cell levels in G1 phase (SR cells [1]; 3.1 µM of compound 5e, 48 h, control 52.84%): 61.29%
- S phase % of the examined cells (SR cells [1]; 3.1 µM of compound 5e, 48 h, untreated 34.18%): 36.86%
- Increase of the apoptosis ratio compared to the untreated cells (SR cells [2]; concentration equivalent to IC50 (13.05 µM), 48 h): 37.34%
- Late phase of apoptosis (SR cells [2]; concentration equivalent to IC50, control 0.16%): 24.33%
- Early phase of apoptosis (SR cells [2]; concentration equivalent to IC50, control 0.44%): 13.61%
- Tumour inhibition ratio (TIR%) [3]: 62.7%
- Solid tumour mass ([3]; SEC control 226 mg): 96.3 mg
- Tumour volume ([3]; SEC control 80.6 mm^3): 30.1 mm^3
- ALT ([4]; SEC control 65.9 U/L): 39.8 U/L
- AST ([4]; SEC control 71 U/L): 35.6 U/L
